The record followed here is patent US9758492B2, “IDO inhibitors” (Bristol-Myers Squibb Company, priority 2013, dated 2017).

The target in this assay is IDO (Homo sapiens, UniProt P14902). In words: LLE_IDO_ABS_DR (IDO assay).
IDO, sequence (P14902 whole entry): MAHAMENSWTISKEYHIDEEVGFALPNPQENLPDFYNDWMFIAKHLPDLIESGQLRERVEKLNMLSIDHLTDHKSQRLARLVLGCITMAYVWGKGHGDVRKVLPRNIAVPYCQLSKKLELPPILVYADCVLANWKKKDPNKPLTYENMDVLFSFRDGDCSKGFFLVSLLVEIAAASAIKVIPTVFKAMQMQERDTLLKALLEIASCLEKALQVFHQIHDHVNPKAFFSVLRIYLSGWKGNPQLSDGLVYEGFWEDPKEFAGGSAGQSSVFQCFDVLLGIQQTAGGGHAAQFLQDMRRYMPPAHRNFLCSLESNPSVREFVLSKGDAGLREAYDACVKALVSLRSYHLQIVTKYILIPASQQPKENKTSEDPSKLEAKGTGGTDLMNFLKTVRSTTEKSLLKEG

A word on the IC50: it is the concentration needed to halve the response being measured. Compound `Cc1noc(C2CCN(c3ccc(-c4ccccc4-c4nnn[nH]4)cc3NC(=O)Nc3ccc(C(F)(F)F)cc3F)C2)n1` (centres unmarked) [Example 390] had an IC50 of 1590 nM.

The compound `CC(C)CN(CC(C)C)c1ccc(-c2ccccc2-c2nnn[nH]2)cc1NC(=O)Nc1cccc(F)c1F` [Example 263, 1-(2,3-difluorophenyl)-3-(4-(diisobutylamino)-2′-(1H-tetrazol-5-yl)-[1,1′-biphenyl]-3-yl)urea] yielded an IC50 of 7.97 nM.

`CC1CC(C)CN(c2ccc(-c3ccccc3-c3nnn[nH]3)cc2NC(=O)Nc2ccc(F)cc2)C1` (centres unmarked) [Example 236] came in with an IC50 of 2140 nM.

The compound `CCCCN(CCCC)c1ccc(-c2ccccc2-c2nnn[nH]2)cc1NC(=O)Nc1ccc(C)cc1` [Example 88, 1-(4-(dibutylamino)-2′-(1H-tetrazol-5-yl)biphenyl-3-yl)-3-p-tolylurea] displayed an IC50 of 9.82 nM.

With `Cc1ccc(NC(=O)Nc2cc(-c3scnc3C(=O)O)ccc2N(CC(C)C)CC(C)C)cc1` [Example 103, 5-(4-(diisobutylamino)-3-(3-p-tolylureido)phenyl)thiazole-4-carboxylic acid], the IC50 stood at 1760 nM.

`Cc1ccc(NC(=O)Nc2cc(-c3ccccc3-c3nnn[nH]3)ccc2N(C)C2CCC(F)(F)CC2)cc1` [Example 106, 1-(4-((4,4-difluoro-cyclohexyl) (methyl)amino)-2′-(1H-tetrazol-5-yl)biphenyl-3-yl)-3-p-tolylurea] yielded an IC50 of 8.81 nM.

Regarding `CCN(c1ccc(-c2ccccc2-c2nnn[nH]2)cc1NC(=O)Nc1ccc(C)cc1)C1CCCC1` [Example 75, 1-(4-(cyclopentyl(ethyl)amino)-2′-(1H-tetrazol-5-yl)biphenyl-3-yl)-3-p-tolylurea], inhibition was half-maximal at 3.24 nM (IC50).

In turn, `COCCN(Cc1ccc(Cl)cc1)c1ccc(-c2ccccc2-c2nnn[nH]2)cc1NC(=O)Nc1ccc(C)cc1` [Example 191, 1-(4-((4-chlorobenzyl)(2-methoxyethyl)amino)-2′-(1H-tetrazol-5-yl)-[1,1′-biphenyl]-3-yl)-3-(p-tolyl)urea] had an IC50 of 5.79 nM.

Regarding `CC(C)CN(CC(C)C)c1ccc(-c2cc(F)ccc2C(=O)O)cc1NC(=O)Nc1ccc(F)cc1F` [Example 146, 3′-(3-(2,4-difluorophenyl)ureido)-4′-(diisobutylamino)-5-fluorobiphenyl-2-carboxylic acid], the IC50 came to 10 nM.

Compound `CC(C)CN(c1cc(F)c(-c2ccccc2C(=O)O)cc1NC(=O)Nc1ccccc1F)C1CCCCC1` [Example 228, 4′-(cyclohexyl(isobutyl)amio-no)-2′-fluoro-5′-(3-(2-fluorophenyl)ureido) biphenyl-2-carboxylic acid] gave an IC50 of 1.74 nM.

In turn, `O=C(Nc1ccc(C(F)(F)F)cc1F)Nc1cc(-c2ccccc2-c2nnn[nH]2)ccc1N(CCC(F)(F)F)Cc1ccc(F)cc1C(F)(F)F` [Example 300, 1-(4-((4-fluoro-2-(trifluoromethyl)benzyl) (3,3,3-trifluoropropyl)amino)-2′-(1H-tetrazol-5-yl)-[1,1′-biphenyl]-3-yl)-3-(2-fluoro-4-(trifluoromethyl)phenyl)urea] yielded an IC50 of 180 nM.

As to `C#CCOc1ccc(NC(=O)Nc2cc(-c3ccccc3-c3nnn[nH]3)ccc2N(CC(C)C)CC(C)C)cc1` [Example 244], inhibition was half-maximal at 9.3 nM (IC50).

In turn, `O=C(Nc1cc(-c2ccccc2-c2nnn[nH]2)ccc1N(CCC(F)(F)F)Cc1ccc(OC(F)(F)F)cc1)Nc1ccccc1C(F)(F)F` [Example 342, 1-(2′-(1H-tetrazol-5-yl)-4-((4-(trifluoromethoxy)benzyl)(3,3,3-trifluoropropyl)amino)-[1,1′-biphenyl]-3-yl)-3-(2-(trifluoromethyl)phenyl)urea] displayed an IC50 of 170 nM.

For `Cc1ccc(NC(=O)Nc2cc(-c3ccccc3-c3nnn[nH]3)ccc2N2CC(C)CC(C)C2)cc1` (centres unmarked) [Example 235, 1-(4-(3,5-Dimethylpiperidin-1-yl)-2′-(1H-tetrazol-5-yl)-[1,1′-biphenyl]-3-yl)-3-(p-tolyl)urea], the half-maximal inhibitory concentration (IC50) is 790 nM.
